Source: the kinase profiling compilation of Christmann-Franck et al. (2016)

Assays:
Assay in all cases: radiometric filter-binding kinase assay, Kinase HotSpot
Conditions in all cases: compound 0.5 µM; ATP 10 µM
[1] = molecular target: ACVRL1 (human) (UniProt P37023)
[2] = molecular target: AKT2 (human) (UniProt P31751)
[3] = molecular target: CAMK1 (human) (UniProt Q14012)
[4] = molecular target: CAMK2A (human) (UniProt Q9UQM7)
[5] = molecular target: CAMK4 (human) (UniProt Q16566)
[6] = molecular target: CDK1 CCNA2 (human) (UniProt P06493+P20248)
[7] = molecular target: CDK2 CCNA2 (human) (UniProt P24941+P20248)
[8] = molecular target: CDK2 CCNE1 (human) (UniProt P24941+P24864)
Sequence of CDK2 CCNE1 (human) (P24864 whole entry, looked up, other chains not shown): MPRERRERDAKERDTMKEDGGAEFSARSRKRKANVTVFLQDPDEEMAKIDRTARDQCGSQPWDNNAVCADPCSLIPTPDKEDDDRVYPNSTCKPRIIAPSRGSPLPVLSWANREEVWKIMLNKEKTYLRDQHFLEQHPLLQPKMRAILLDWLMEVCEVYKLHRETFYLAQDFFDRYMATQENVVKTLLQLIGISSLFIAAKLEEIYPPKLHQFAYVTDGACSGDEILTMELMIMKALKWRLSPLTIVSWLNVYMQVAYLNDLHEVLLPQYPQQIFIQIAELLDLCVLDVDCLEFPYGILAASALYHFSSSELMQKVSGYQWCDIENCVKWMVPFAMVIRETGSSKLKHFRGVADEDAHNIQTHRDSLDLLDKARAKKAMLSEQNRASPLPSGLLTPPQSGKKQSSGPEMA

[9] = molecular target: CDK7 CCNH MNAT1 (human) (UniProt P50613+P51948+P51946)
[10] = molecular target: CHUK (human) (UniProt O15111)
Sequence of CHUK (human) (O15111 whole entry, looked up): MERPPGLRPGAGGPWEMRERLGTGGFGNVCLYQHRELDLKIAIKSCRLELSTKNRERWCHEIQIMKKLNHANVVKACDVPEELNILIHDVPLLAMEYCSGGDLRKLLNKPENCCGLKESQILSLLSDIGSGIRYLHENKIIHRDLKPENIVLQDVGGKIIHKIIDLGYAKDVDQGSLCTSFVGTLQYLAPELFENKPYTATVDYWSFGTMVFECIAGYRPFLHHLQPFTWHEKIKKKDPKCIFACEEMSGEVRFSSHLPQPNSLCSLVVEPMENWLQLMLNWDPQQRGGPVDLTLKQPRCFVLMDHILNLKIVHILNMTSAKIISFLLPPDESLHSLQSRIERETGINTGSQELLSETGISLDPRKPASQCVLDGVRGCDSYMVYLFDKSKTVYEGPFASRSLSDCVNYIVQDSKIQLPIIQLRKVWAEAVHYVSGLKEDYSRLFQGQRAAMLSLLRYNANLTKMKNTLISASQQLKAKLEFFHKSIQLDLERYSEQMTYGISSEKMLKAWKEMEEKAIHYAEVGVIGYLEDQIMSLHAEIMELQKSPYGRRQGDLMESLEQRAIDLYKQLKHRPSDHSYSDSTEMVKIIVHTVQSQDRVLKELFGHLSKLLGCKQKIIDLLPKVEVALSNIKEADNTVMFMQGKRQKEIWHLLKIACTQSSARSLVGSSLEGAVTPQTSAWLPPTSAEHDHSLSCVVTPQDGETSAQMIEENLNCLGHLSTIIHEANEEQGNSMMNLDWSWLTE

[11] = molecular target: CSNK1G1 (human) (UniProt Q9HCP0)
Sequence of CSNK1G1 (human) (Q9HCP0 whole entry, looked up): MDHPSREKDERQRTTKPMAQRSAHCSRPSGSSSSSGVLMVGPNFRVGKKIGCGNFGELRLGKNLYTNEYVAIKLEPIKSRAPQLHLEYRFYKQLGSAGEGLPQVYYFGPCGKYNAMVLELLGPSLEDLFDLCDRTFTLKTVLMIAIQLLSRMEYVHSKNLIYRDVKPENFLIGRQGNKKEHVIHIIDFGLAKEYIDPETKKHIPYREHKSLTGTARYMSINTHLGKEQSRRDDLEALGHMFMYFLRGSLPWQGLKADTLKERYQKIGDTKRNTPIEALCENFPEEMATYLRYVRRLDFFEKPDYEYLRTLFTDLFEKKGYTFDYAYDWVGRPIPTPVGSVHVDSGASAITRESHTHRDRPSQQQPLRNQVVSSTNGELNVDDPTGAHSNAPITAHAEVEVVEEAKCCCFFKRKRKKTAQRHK

[12] = molecular target: DYRK3 (human) (UniProt O43781)
[13] = molecular target: EPHA5 (human) (UniProt P54756)
[14] = molecular target: GRK4 (human) (UniProt P32298)
[15] = molecular target: GRK5 (human) (UniProt P34947)
[16] = molecular target: HIPK2 (human) (UniProt Q9H2X6)
Sequence of HIPK2 (human) (Q9H2X6 whole entry, looked up): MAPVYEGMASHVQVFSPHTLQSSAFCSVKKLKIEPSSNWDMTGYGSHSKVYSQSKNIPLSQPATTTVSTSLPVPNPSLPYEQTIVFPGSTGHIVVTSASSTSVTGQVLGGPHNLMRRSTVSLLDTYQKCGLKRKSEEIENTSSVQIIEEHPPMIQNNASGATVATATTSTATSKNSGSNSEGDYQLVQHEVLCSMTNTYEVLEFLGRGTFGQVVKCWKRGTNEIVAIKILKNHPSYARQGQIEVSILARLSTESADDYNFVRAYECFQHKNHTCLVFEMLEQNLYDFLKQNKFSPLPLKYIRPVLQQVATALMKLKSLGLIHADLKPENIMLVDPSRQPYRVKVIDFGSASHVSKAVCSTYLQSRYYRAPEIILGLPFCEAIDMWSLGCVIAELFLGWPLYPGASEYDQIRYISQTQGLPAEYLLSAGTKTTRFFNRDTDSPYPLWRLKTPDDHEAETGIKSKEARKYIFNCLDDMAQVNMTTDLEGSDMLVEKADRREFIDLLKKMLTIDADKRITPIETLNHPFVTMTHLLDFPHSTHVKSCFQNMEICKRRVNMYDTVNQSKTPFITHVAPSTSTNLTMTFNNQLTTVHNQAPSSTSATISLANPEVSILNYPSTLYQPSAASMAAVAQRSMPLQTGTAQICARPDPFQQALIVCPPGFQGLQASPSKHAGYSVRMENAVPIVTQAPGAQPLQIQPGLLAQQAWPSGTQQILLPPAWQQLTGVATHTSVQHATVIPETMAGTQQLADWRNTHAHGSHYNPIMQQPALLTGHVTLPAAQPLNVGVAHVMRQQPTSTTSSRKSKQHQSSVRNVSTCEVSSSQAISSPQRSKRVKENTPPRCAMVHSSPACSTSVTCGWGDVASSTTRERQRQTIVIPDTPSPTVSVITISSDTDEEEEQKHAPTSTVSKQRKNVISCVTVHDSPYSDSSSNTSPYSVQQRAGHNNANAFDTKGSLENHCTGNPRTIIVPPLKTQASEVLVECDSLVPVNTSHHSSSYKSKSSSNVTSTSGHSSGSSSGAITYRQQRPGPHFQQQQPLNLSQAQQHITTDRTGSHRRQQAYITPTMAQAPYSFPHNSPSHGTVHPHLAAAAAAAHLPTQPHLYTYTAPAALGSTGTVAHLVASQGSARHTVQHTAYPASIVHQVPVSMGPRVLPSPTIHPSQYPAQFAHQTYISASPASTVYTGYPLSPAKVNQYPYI

[17] = molecular target: IGF1R (human) (UniProt P08069)
[18] = molecular target: MAP3K10 (human) (UniProt Q02779)
[19] = molecular target: MAP4K2 (human) (UniProt Q12851)
[20] = molecular target: MAPK1 (human) (UniProt P28482)
[21] = molecular target: MAPKAPK5 (human) (UniProt Q8IW41)
[22] = molecular target: MELK (human) (UniProt Q14680)
Sequence of MELK (human) (Q14680 whole entry, looked up): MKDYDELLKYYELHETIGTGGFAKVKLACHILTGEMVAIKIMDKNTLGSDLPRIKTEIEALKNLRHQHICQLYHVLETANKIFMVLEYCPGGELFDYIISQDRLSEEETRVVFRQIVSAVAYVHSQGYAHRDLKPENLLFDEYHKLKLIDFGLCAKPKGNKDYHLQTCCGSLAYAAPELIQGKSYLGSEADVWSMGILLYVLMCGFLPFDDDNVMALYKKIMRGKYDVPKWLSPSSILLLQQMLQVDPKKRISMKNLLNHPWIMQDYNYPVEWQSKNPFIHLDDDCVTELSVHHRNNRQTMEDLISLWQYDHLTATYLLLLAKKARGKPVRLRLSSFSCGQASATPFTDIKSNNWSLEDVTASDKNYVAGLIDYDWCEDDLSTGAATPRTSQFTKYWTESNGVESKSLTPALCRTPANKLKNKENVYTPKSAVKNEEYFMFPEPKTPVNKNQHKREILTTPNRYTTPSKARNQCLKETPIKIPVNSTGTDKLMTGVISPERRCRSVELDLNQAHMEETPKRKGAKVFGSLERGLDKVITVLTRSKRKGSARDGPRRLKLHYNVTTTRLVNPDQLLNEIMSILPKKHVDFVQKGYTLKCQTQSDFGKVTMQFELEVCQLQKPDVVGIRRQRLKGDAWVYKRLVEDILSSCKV

[23] = molecular target: NEK3 (human) (UniProt P51956)
[24] = molecular target: NEK6 (human) (UniProt Q9HC98)
[25] = molecular target: NTRK2 (human) (UniProt Q16620)
[26] = molecular target: PAK6 (human) (UniProt Q9NQU5)
[27] = molecular target: PDPK1 (human) (UniProt O15530)
[28] = molecular target: PRKCB2 (human) (UniProt P05771)
Sequence of PRKCB2 (human) (P05771 whole entry, looked up): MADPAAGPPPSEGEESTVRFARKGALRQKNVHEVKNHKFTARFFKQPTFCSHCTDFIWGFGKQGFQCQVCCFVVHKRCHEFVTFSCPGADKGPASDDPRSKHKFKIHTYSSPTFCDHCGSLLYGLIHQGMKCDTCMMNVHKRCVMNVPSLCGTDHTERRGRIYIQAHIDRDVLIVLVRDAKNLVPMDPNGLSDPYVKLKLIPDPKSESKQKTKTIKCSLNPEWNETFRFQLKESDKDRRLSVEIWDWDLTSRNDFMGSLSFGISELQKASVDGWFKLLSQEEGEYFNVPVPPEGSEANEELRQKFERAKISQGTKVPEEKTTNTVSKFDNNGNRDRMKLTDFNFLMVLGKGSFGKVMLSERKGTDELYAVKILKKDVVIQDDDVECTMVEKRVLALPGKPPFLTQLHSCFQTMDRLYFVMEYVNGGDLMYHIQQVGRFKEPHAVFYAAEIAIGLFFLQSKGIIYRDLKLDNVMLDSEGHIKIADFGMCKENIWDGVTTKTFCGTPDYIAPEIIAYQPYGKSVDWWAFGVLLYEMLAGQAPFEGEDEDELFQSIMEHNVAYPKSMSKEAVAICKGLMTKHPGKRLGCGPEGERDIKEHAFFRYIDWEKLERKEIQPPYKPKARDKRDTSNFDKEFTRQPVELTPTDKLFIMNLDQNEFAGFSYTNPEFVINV

[29] = molecular target: PRKCI (human) (UniProt P41743)
[30] = molecular target: PRKD2 (human) (UniProt Q9BZL6)
[31] = molecular target: PRKG2 (human) (UniProt Q13237)
[32] = molecular target: SRPK2 (human) (UniProt P78362)
[33] = molecular target: SRPK3 (human) (UniProt Q9UPE1)
[34] = molecular target: STK33 (human) (UniProt Q9BYT3)
[35] = molecular target: TGFBR1 (human) (UniProt P36897)
[36] = molecular target: TSSK1B (human) (UniProt Q9BXA7)
Sequence of TSSK1B (human) (Q9BXA7 whole entry, looked up): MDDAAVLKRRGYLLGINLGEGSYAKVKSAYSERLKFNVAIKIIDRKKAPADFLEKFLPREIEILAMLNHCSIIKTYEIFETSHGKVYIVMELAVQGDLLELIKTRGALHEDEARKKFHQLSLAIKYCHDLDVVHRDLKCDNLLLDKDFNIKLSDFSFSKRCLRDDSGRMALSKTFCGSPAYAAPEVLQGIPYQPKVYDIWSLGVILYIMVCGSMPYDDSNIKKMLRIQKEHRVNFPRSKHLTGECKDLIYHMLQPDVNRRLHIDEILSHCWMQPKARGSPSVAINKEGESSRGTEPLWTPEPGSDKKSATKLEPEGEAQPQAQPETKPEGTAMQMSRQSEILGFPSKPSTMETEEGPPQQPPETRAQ

[37] = molecular target: ABL2 (human) (UniProt P42684)
[38] = molecular target: BTK (human) (UniProt Q06187)
[39] = molecular target: MAPK10 (human) (UniProt P53779)
[40] = molecular target: MKNK2 (human) (UniProt Q9HBH9)
[41] = molecular target: KIT (human) (UniProt P10721)

Sequence of CAMK2A (human) (Q9UQM7 whole entry, looked up): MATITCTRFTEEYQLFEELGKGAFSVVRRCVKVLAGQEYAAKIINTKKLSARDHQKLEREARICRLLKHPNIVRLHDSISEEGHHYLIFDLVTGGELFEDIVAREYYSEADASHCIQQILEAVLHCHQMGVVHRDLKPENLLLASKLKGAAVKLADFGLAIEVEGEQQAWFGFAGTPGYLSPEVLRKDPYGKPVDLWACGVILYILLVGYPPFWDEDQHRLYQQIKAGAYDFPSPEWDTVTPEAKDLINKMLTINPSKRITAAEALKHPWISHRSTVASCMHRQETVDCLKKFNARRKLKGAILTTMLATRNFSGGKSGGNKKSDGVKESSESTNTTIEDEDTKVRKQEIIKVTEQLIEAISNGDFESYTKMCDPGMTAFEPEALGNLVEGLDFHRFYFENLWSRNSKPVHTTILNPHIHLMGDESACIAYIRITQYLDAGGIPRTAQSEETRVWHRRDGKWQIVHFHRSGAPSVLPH

Which results are given for `C#Cc1cccc(Nc2ncnc3cc(OCCOC)c(OCCOC)cc23)c1`?
residual activity [1]: 101%; residual activity [2]: 108%; residual activity [3]: 98.9%; residual activity [4]: 97.6%; residual activity [5]: 94.8%; residual activity [6]: 99.6%; residual activity [7]: 95.9%; residual activity [8]: 96.5%; residual activity [9]: 107%; residual activity [10]: 94.2%; residual activity [11]: 104%; residual activity [12]: 83.5%; residual activity [13]: 99.1%; residual activity [14]: 89.6%; residual activity [15]: 100%; residual activity [16]: 99.3%; residual activity [17]: 91.6%; residual activity [18]: 108%; residual activity [19]: 105%; residual activity [20]: 116%; residual activity [21]: 89.7%; residual activity [22]: 88.6%; residual activity [23]: 95.6%; residual activity [24]: 89.1%; residual activity [25]: 93.1%; residual activity [26]: 104%; residual activity [27]: 83.8%; residual activity [28]: 98.6%; residual activity [29]: 99%; residual activity [30]: 85.9%; residual activity [31]: 107%; residual activity [32]: 101%; residual activity [33]: 101%; residual activity [34]: 90.8%; residual activity [35]: 99.1%; residual activity [36]: 78.9%

What does the source list for `COc1cc2ncnc(Nc3ccc(F)c(Cl)c3)c2cc1OCCCN1CCOCC1`?
residual activity [37]: 72%; residual activity [1]: 96.9%; residual activity [38]: 60.6%; residual activity [3]: 102%; residual activity [4]: 94.4%; residual activity [5]: 93.3%; residual activity [6]: 101%; residual activity [7]: 95.9%; residual activity [8]: 101%; residual activity [9]: 105%; residual activity [10]: 94.9%; residual activity [11]: 99.5%; residual activity [12]: 85%; residual activity [13]: 95.8%; residual activity [14]: 91%; residual activity [15]: 94.9%; residual activity [16]: 99.7%; residual activity [17]: 92.3%; residual activity [18]: 109%; residual activity [19]: 104%; residual activity [20]: 103%; residual activity [39]: 102%; residual activity [21]: 92.7%; residual activity [22]: 77.7%; residual activity [40]: 54.1%; residual activity [23]: 94.4%; residual activity [24]: 89.9%; residual activity [25]: 98.2%; residual activity [26]: 105%; residual activity [27]: 88.2%; residual activity [28]: 100%; residual activity [29]: 96.9%; residual activity [32]: 99.5%; residual activity [33]: 103%; residual activity [34]: 90.4%; residual activity [35]: 99.6%; residual activity [36]: 90%

What does the source list for `CCN1/C(=C/C(C)=O)Sc2ccc(OC)cc21`?
residual activity [37]: 96.1%; residual activity [1]: 102%; residual activity [2]: 95.2%; residual activity [38]: 101%; residual activity [3]: 88.5%; residual activity [4]: 103%; residual activity [5]: 99.9%; residual activity [6]: 97.5%; residual activity [7]: 89.7%; residual activity [8]: 87.7%; residual activity [9]: 94.8%; residual activity [10]: 89.9%; residual activity [11]: 87.8%; residual activity [12]: 50.4%; residual activity [13]: 97.8%; residual activity [14]: 96.2%; residual activity [15]: 108%; residual activity [16]: 100%; residual activity [17]: 98.3%; residual activity [41]: 67.8%; residual activity [18]: 95%; residual activity [19]: 105%; residual activity [20]: 97.1%; residual activity [39]: 102%; residual activity [21]: 112%; residual activity [22]: 94.6%; residual activity [40]: 93.8%; residual activity [23]: 82.5%; residual activity [24]: 109%; residual activity [25]: 104%; residual activity [26]: 95.6%; residual activity [27]: 97.5%; residual activity [28]: 99.3%; residual activity [29]: 97.8%; residual activity [30]: 69.4%; residual activity [31]: 65.8%; residual activity [32]: 95.8%; residual activity [33]: 95%; residual activity [34]: 57.4%; residual activity [35]: 94.2%; residual activity [36]: 110%
